{
  "source": "ChEMBL document CHEMBL3046040",
  "about": "“Synthesis, cytostatic and anti-viral activity evaluation of the novel acyclic nucleoside analogues containing a sterically constrained (Z)-4-amino-2-butenyl moiety” (Med Chem Res, 2011)",
  "note": "pEC50, pIC50: −log10 of the molar value. The source made the active and inactive calls. The calls are words filed in the database; no cut-off is given here.",
  "data": [
    {"tested_on": "Human immunodeficiency virus 1", "assay": "Antiviral activity against Human immunodeficiency virus 1 IIIB infected CEM cells assessed as inhibition of virus-induced giant cell formation after 4 days by microscopic analysis", "type": "functional, organism-based", "details": "CCRF-CEM, 96 h", "values": [
      {"smiles": "Cc1cn(C/C=C\\CN)c(=O)nc1N", "pEC50": 4.44},
      {"smiles": "NC/C=C\\Cn1cnc2c(=O)[nH]c(N)nc21", "pEC50": 5.00},
      {"smiles": "NC/C=C\\Cn1ccc(N)nc1=O", "pEC50": 4.02}
    ]},
    {"tested_on": "WI-38", "assay": "Antiproliferative activity against Homo sapiens (human) WI38 cells by MTT assay", "type": "cell-based", "details": "not given", "values": [
      {"smiles": "Cc1cn(C/C=C\\CN)c(=O)nc1N", "pIC50": 4.20},
      {"smiles": "NC/C=C\\Cn1ccc(N)nc1=O", "pIC50": 4.07}
    ]},
    {"tested_on": "SW-620", "assay": "Antiproliferative activity against Homo sapiens (human) SW620 cells by MTT assay", "type": "functional, cell-based", "details": "Homo sapiens, SW-620", "values": [
      {"smiles": "Cc1cn(C/C=C\\CN)c(=O)nc1N", "pIC50": 4.16},
      {"smiles": "NC/C=C\\Cn1ccc(N)nc1=O", "pIC50": 4.27}
    ]},
    {"tested_on": "MIA PaCa-2", "assay": "Antiproliferative activity against Homo sapiens (human) MIAPaCa2 cells by MTT assay", "type": "functional, cell-based", "details": "not given", "values": [
      {"smiles": "Cc1cn(C/C=C\\CN)c(=O)nc1N", "pIC50": "< 4.00"},
      {"smiles": "NC/C=C\\Cn1ccc(N)nc1=O", "pIC50": "< 4.00"}
    ]},
    {"tested_on": "MCF7", "assay": "Antiproliferative activity against Homo sapiens (human) MCF7 cells by MTT assay", "type": "functional, cell-based", "details": "not given", "values": [
      {"smiles": "Cc1cn(C/C=C\\CN)c(=O)nc1N", "pIC50": 4.17},
      {"smiles": "NC/C=C\\Cn1ccc(N)nc1=O", "pIC50": "< 4.00"}
    ]},
    {"tested_on": "HepG2", "assay": "Antiproliferative activity against Homo sapiens (human) HepG2 cells by MTT assay", "type": "functional, cell-based", "details": "not given", "values": [
      {"smiles": "Cc1cn(C/C=C\\CN)c(=O)nc1N", "pIC50": "< 4.00"},
      {"smiles": "NC/C=C\\Cn1ccc(N)nc1=O", "pIC50": "< 4.00"}
    ]},
    {"tested_on": "HeLa", "assay": "Antiproliferative activity against Homo sapiens (human) HeLa cells by MTT assay", "type": "functional, cell-based", "details": "not given", "values": [
      {"smiles": "Cc1cn(C/C=C\\CN)c(=O)nc1N", "pIC50": "< 4.00"},
      {"smiles": "NC/C=C\\Cn1ccc(N)nc1=O", "pIC50": "< 4.00"}
    ]},
    {"tested_on": "CCRF-CEM", "assay": "Cytostatic activity against Homo sapiens (human) CEM cells after 72 hr by Coulter counting analysis", "type": "functional, cell-based", "details": "not given", "values": [
      {"smiles": "Cc1cn(C/C=C\\CN)c(=O)nc1N", "pIC50": 4.34},
      {"smiles": "NC/C=C\\Cn1ccc(N)nc1=O", "pIC50": "< 3.30"}
    ]},
    {"tested_on": "MOLT-4", "assay": "Cytostatic activity against Homo sapiens (human) Molt4/C8 cells after 72 hr by Coulter counting analysis", "type": "functional, cell-based", "details": "MOLT-4, 72 h", "values": [
      {"smiles": "Cc1cn(C/C=C\\CN)c(=O)nc1N", "pIC50": 4.38},
      {"smiles": "NC/C=C\\Cn1ccc(N)nc1=O", "pIC50": "< 3.30"}
    ]},
    {"tested_on": "L1210", "assay": "Cytostatic activity against Mus musculus (mouse) L1210 cells after 48 hr by Coulter counting analysis", "type": "functional, cell-based", "details": "Mus musculus, L1210, 48 h", "values": [
      {"smiles": "Cc1cn(C/C=C\\CN)c(=O)nc1N", "pIC50": 4.35},
      {"smiles": "NC/C=C\\Cn1ccc(N)nc1=O", "pIC50": "< 3.30"}
    ]},
    {"tested_on": "Influenza A virus H3N2", "assay": "Antiviral activity against Influenza A virus H3N2 infected MDCK cells assessed as inhibition of virus-induced cytopathic effect", "type": "functional, organism-based", "details": "not given", "values": [
      {"smiles": "Cc1cn(C/C=C\\CN)c(=O)nc1N", "Activity": "inactive"},
      {"smiles": "NC/C=C\\Cn1cnc2c(=O)[nH]c(N)nc21", "Activity": "inactive"},
      {"smiles": "NC/C=C\\Cn1ccc(N)nc1=O", "Activity": "inactive"}
    ]},
    {"tested_on": "Influenza B virus", "assay": "Antiviral activity against Influenza B virus infected MDCK cells assessed as inhibition of virus-induced cytopathic effect", "type": "functional, organism-based", "details": "not given", "values": [
      {"smiles": "Cc1cn(C/C=C\\CN)c(=O)nc1N", "Activity": "inactive"},
      {"smiles": "NC/C=C\\Cn1cnc2c(=O)[nH]c(N)nc21", "Activity": "inactive"},
      {"smiles": "NC/C=C\\Cn1ccc(N)nc1=O", "Activity": "inactive"}
    ]},
    {"tested_on": "Influenza A virus", "assay": "Antiviral activity against Unidentified Influenza A virus ([…]) infected MDCK cells assessed as inhibition of virus-induced cytopathic effect", "type": "functional, organism-based", "details": "Influenza A virus (H1N1)", "values": [
      {"smiles": "Cc1cn(C/C=C\\CN)c(=O)nc1N", "Activity": "inactive"},
      {"smiles": "NC/C=C\\Cn1cnc2c(=O)[nH]c(N)nc21", "Activity": "inactive"},
      {"smiles": "NC/C=C\\Cn1ccc(N)nc1=O", "Activity": "inactive"}
    ]},
    {"tested_on": "Respiratory syncytial virus", "assay": "Antiviral activity against Respiratory syncytial virus infected HeLa cells assessed as inhibition of virus-induced cytopathic effect", "type": "functional, organism-based", "details": "not given", "values": [
      {"smiles": "Cc1cn(C/C=C\\CN)c(=O)nc1N", "Activity": "inactive"},
      {"smiles": "NC/C=C\\Cn1cnc2c(=O)[nH]c(N)nc21", "Activity": "inactive"},
      {"smiles": "NC/C=C\\Cn1ccc(N)nc1=O", "Activity": "inactive"}
    ]},
    {"tested_on": "Coxsackievirus B4", "assay": "Antiviral activity against Human coxsackievirus B4 infected HeLa cells assessed as inhibition of virus-induced cytopathic effect", "type": "functional, organism-based", "details": "not given", "values": [
      {"smiles": "Cc1cn(C/C=C\\CN)c(=O)nc1N", "Activity": "inactive"},
      {"smiles": "NC/C=C\\Cn1cnc2c(=O)[nH]c(N)nc21", "Activity": "inactive"},
      {"smiles": "NC/C=C\\Cn1ccc(N)nc1=O", "Activity": "inactive"}
    ]},
    {"tested_on": "Vesicular stomatitis virus", "assay": "Antiviral activity against Vesicular stomatitis virus infected HeLa cells assessed as inhibition of virus-induced cytopathic effect", "type": "functional, organism-based", "details": "not given", "values": [
      {"smiles": "Cc1cn(C/C=C\\CN)c(=O)nc1N", "Activity": "inactive"},
      {"smiles": "NC/C=C\\Cn1cnc2c(=O)[nH]c(N)nc21", "Activity": "inactive"},
      {"smiles": "NC/C=C\\Cn1ccc(N)nc1=O", "Activity": "inactive"}
    ]},
    {"tested_on": "Punta Toro virus", "assay": "Antiviral activity against Punta Toro virus infected Vero cells assessed as inhibition of virus-induced cytopathic effect", "type": "functional, organism-based", "details": "not given", "values": [
      {"smiles": "Cc1cn(C/C=C\\CN)c(=O)nc1N", "Activity": "inactive"},
      {"smiles": "NC/C=C\\Cn1cnc2c(=O)[nH]c(N)nc21", "Activity": "inactive"},
      {"smiles": "NC/C=C\\Cn1ccc(N)nc1=O", "Activity": "inactive"}
    ]},
    {"tested_on": "Coxsackievirus B4", "assay": "Antiviral activity against Human coxsackievirus B4 infected Vero cells assessed as inhibition of virus-induced cytopathic effect", "type": "functional, organism-based", "details": "not given", "values": [
      {"smiles": "Cc1cn(C/C=C\\CN)c(=O)nc1N", "Activity": "inactive"},
      {"smiles": "NC/C=C\\Cn1cnc2c(=O)[nH]c(N)nc21", "Activity": "inactive"},
      {"smiles": "NC/C=C\\Cn1ccc(N)nc1=O", "Activity": "inactive"}
    ]},
    {"tested_on": "Sindbis virus", "assay": "Antiviral activity against Sindbis virus infected Vero cells assessed as inhibition of virus-induced cytopathic effect", "type": "functional, organism-based", "details": "not given", "values": [
      {"smiles": "Cc1cn(C/C=C\\CN)c(=O)nc1N", "Activity": "inactive"},
      {"smiles": "NC/C=C\\Cn1cnc2c(=O)[nH]c(N)nc21", "Activity": "inactive"},
      {"smiles": "NC/C=C\\Cn1ccc(N)nc1=O", "Activity": "inactive"}
    ]},
    {"tested_on": "Reovirus sp.", "assay": "Antiviral activity against Mammalian orthoreovirus 1 infected Vero cells assessed as inhibition of virus-induced cytopathic effect", "type": "functional, organism-based", "details": "not given", "values": [
      {"smiles": "Cc1cn(C/C=C\\CN)c(=O)nc1N", "Activity": "inactive"},
      {"smiles": "NC/C=C\\Cn1cnc2c(=O)[nH]c(N)nc21", "Activity": "inactive"},
      {"smiles": "NC/C=C\\Cn1ccc(N)nc1=O", "Activity": "inactive"}
    ]},
    {"tested_on": "Human respirovirus 3", "assay": "Antiviral activity against Human parainfluenza virus 3 infected Vero cells assessed as inhibition of virus-induced cytopathic effect", "type": "functional, organism-based", "details": "not given", "values": [
      {"smiles": "Cc1cn(C/C=C\\CN)c(=O)nc1N", "Activity": "inactive"},
      {"smiles": "NC/C=C\\Cn1cnc2c(=O)[nH]c(N)nc21", "Activity": "inactive"},
      {"smiles": "NC/C=C\\Cn1ccc(N)nc1=O", "Activity": "inactive"}
    ]},
    {"tested_on": "Human alphaherpesvirus 2", "assay": "Antiviral activity against Human herpesvirus 2 strain G infected HEL cells assessed as inhibition of virus-induced cytopathic effect", "type": "functional, organism-based", "details": "not given", "values": [
      {"smiles": "Cc1cn(C/C=C\\CN)c(=O)nc1N", "Activity": "inactive"},
      {"smiles": "NC/C=C\\Cn1cnc2c(=O)[nH]c(N)nc21", "Activity": "inactive"},
      {"smiles": "NC/C=C\\Cn1ccc(N)nc1=O", "Activity": "inactive"}
    ]},
    {"tested_on": "Human alphaherpesvirus 1", "assay": "Antiviral activity against Human herpesvirus 1 strain KOS infected in HEL cells assessed as inhibition of virus-induced cytopathic effect", "type": "functional, organism-based", "details": "not given", "values": [
      {"smiles": "Cc1cn(C/C=C\\CN)c(=O)nc1N", "Activity": "inactive"},
      {"smiles": "NC/C=C\\Cn1cnc2c(=O)[nH]c(N)nc21", "Activity": "inactive"},
      {"smiles": "NC/C=C\\Cn1ccc(N)nc1=O", "Activity": "inactive"}
    ]},
    {"target": "Human immunodeficiency virus type 1 reverse transcriptase (Human immunodeficiency virus 1) (UniProt Q72547)", "assay": "Inhibition of Human immunodeficiency virus 1 recombinant reverse transcriptase at 500 uM", "details": "not given", "values": [
      {"smiles": "Cc1cn(C/C=C\\CN)c(=O)nc1N", "inhibition": "inactive"},
      {"smiles": "NC/C=C\\Cn1ccc(N)nc1=O", "inhibition": "inactive"}
    ]},
    {"tested_on": "Human immunodeficiency virus 2", "assay": "Antiviral activity against Human immunodeficiency virus type 2 (ISOLATE ROD) infected CEM cells assessed as inhibition of virus-induced giant cell formation after 4 days by microscopic analysis", "type": "functional, organism-based", "details": "Human immunodeficiency virus 2, ISOLATE ROD, CCRF-CEM, 96 h", "values": [
      {"smiles": "Cc1cn(C/C=C\\CN)c(=O)nc1N", "pEC50": 4.42},
      {"smiles": "NC/C=C\\Cn1cnc2c(=O)[nH]c(N)nc21", "pEC50": 5.00},
      {"smiles": "NC/C=C\\Cn1ccc(N)nc1=O", "pEC50": 4.11}
    ]}
  ]
}
